This is an account of results in patent US8779002B2, “Methods for treating a variety of diseases and conditions, and compounds useful therefor” (Salk Institute for Biological Studies, priority 2007, dated 2014).

Molecules are shown by their SMILES.

One experiment relates to HT22 cells. As to the kind of experiment: HT22 oxidative glutamate toxicity (oxytosis) assay. It counts as cell-based, mouse. The settings on record: Oxidative glutamate toxicity (oxytosis); read-out: HT-22 EC50. On the procedure:
FIG. 1D illustrates the results of an oxidative stress assay. HT22 cells were treated with 5 mM glutamate and different concentrations of two versions of curcumin derivatives. Cell viability was measured 24 hr later by the MTT assay (J. B. Davis and P. Maher, Protein kinase C activation inhibits glutamate-induced cytotoxicity in a neuronal cell line. Brain Res. 652 (1994) 169-173). Legend for FIG. 1A, FIG. 1B and FIG. 1D: x-x, Cmpd CNB-001, o-o, Cmpd J147.
Similar toxicity assays as described above are also conducted with invention compounds using HT22 cells in an assay for oxidative stress. After exposure with 1 mM, 2 mM, 2.5 mM, or 5 mM glutamate, cell viability is determined with the MTT assay.
HT22 hippocampal neurons are treated with 5 mM glutamate and increasing concentrations of invention compounds. Cell viability is measured 24 hr later by the MTT assay (Davis and Maher, Brain Res. 652:169-173 (1994)).

A further experiment has as its system MC-65 cells. As to the kind of experiment: MC65 intracellular amyloid toxicity assay. It counts as cell-based. The following applies: Intracellular amyloid toxicity; read-out: MC65 EC50. On the procedure:
FIG. 4A illustrates the viability of MC-65 cells upon exposure to the indicated concentrations of compounds, and the degree to which synthesis of the C-terminal fragment of APP is induced by the removal of tetracycline. Cell death was determined 5 days later by the MTT assay and confirmed visually. The data are plotted as percent viable, relative to controls of drug plus un-induced cells.

The test system of the next experiment is primary cortical neurons. Briefly: Trophic factor withdrawal (TFW) assay. The settings on record: Trophic factor withdrawal assay; read-out: TFW EC50. The experiment is classed as cell-based, rat. On the procedure:
FIG. 1A illustrates the results of a trophic factor withdrawal assay. Primary cortical neurons are prepared from 18-day-old rat embryos, and cultured at low cell density 1×10^6/35 mm dish, in serum containing medium, with different compounds Viability is then assayed 2 days later using a fluorescent live-dead assay (Molecular Probes).
Primary cortical neurons can be prepared from 18-day-old embryos of Sprague-Dawley rats as described (Liu & Schubert, J. Neurochem., 1997, 69:2285-2293 and J. Neurochem., 1998, 71:2322-2329). Briefly, the cerebral cortex is dissected out under an anatomical microscope and is freed of meninges and blood vessels. The cortex is cut into small pieces and is then dissociated by trypsin digestion and passed through a pipette tip. Dissociated neurons are suspended in various media and plated on polylysine-coated 35 mm tissue culture dishes (e.g., 1×10^6 cells/dish). Several different culture conditions can be used as known in the art. Invention compounds can be added to cell culture dishes. Cell survival can be measured 1-2 days after compound administration.
A serum-containing medium can be used which includes a minimal essential medium (Sigma) containing 30 mM glucose, 2 mM glutamine, 1 mM pyruvate, penicillin (100 U/ml), streptomycin (100 μg/ml), and 10% fetal calf serum. At a plating density of 1×10^6 cells/dish, most neurons die after one week of culture in this medium. If plated at a density of 2×10^6 cells/dish, then most neurons survive. The cell density-dependent neuronal survival in this system is most likely dependent on the neurotrophic factors secreted by the neurons, not by the glia. The results are the same when glial proliferation is inhibited by cytosine arabinoside.
The structure-activity relationships of compounds according to the present invention can be determined by measuring trophic factor withdrawal in […] primary cortical neurons. As shown in FIG. 1A-FIG. 1D, compounds are added to low density primary cultures of E18 rat cortical neurons at the time of plating, and cell survival is determined two days later by a variety of methods.

Another experiment has as its system Wistar rats. As to the kind of experiment: Novel object recognition task in rats. It counts as in vivo, rat. On the procedure: FIG. 6 illustrates the effect of galantamine, compounds CNB-001, J147, SK186 and SKI 87 on object recognition task in Wistar rats. The data represent mean±SEM. *p<0.05 compared with the vehicle control.
This model is based on the greater spontaneous exploration of a novel object, compared with a familiar object, shown by rodents (see Ennaceur and Delacour in Behav. Brain Res. 31:47 (1988)). Male Wister rats are assessed for cognitive ability in a test apparatus comprising an open-field arena placed in a sound-attenuated room under dimmed lighting. Images of the open-field are captured by digital camera, and viewed on a monitor in an adjoining room. Each rat is subjected to the procedure separately and care is taken to remove any olfactory/taste cues by cleaning the arena and test objects with alcohol between trials and rats.
Adult male Wistar rats were employed in all rat studies. Animals were placed in the experimental rooms at postnatal day 80 and assigned unique identification numbers (tail marked). Pairs were housed in polycarbonate cages with filter tops and acclimated for 3 days prior to commencing any studies. Animals were maintained in a 12 hour light/dark cycle with room temperature maintained at 22±2° C. with a relative humidity maintained approximately 50%. Food and water were provided ad libitum.
All animals were examined, handled, and weighed for a further two days prior to initiation of the study to assure adequate health and suitability and to minimize non-specific stress associated with manipulation. Each animal was randomly assigned across the treatment groups and balanced by cage numbers. The novel object recognition experiment was performed during the animal's light cycle phase. Drug treatments were balanced across days and animals were only used once
The following compounds were used for this study—Reference compound (Galantamine; 3 mg/kg) was dissolved in 0.9% saline and administered i.p. 1 hour pre-test at a dose volume of 1 ml/kg, and all test compounds were handled in solution, and were kept at −80° C. until use. All compounds were administered orally 60 min prior to training at a volume of 1 ml/kg body weight.
Following a 5-minute habituation period, each rat was placed into the test arena in the presence of two identical objects (plastic shapes). Each rat was placed facing the same direction at the same position in the arena, and the time spent actively exploring the objects during a 5-minute test period (T1) was recorded. The rat was returned to its home cage between tests. After 24 hours, each rat was again placed in the test arena for 5 minutes (T2) in the presence of one of the familiar objects and a novel object, and the time spent exploring both objects was again recorded. The presentation order and position of the objects (left/right) was randomized between rats to prevent bias from order or place preference. A preference index for each object, the ratio of the time spent exploring either the familiar object or the novel object over the total time spent exploring both objects (during retention session T2) was used to measure cognitive function.
Data were analyzed by a one-way analysis of variance (ANOVA) followed by post-hoc comparisons with Fisher Tests when appropriate. An effect was considered significant if p<0.05. Data in the following tables are presented as the mean and standard error to the mean.

For `COc1cccc(C=NN(C(C)=O)c2ccc(C)cc2C)c1` [Compound J147A], the half-maximal effective concentration (EC50) in the experiment on HT22 cells was 70 nM; in the experiment with MC-65 cells, 280 nM; in the experiment on primary cortical neurons, over 1000 nM.

For `COc1ccc2c3c1O[C@H]1C[C@@H](O)C=C[C@@]31CCN(C)C2` [Galantamine, reference compound], the “Recognition index, Mean” value in the experiment on Wistar rats (3 mg/kg i.p. 1 hour pre-test, Wistar rats, n=8) came out at 74.037. Besides, in the experiment with Wistar rats (vehicle versus 3 mg/kg i.p.), the “Fisher's PLSD for Recognition index, Mean Diff. (*vehicle, treatment)” value is reported as −22.114.

For `O=C(N(N=Cc1ccccc1)c1ccccc1)C(F)(F)F` [HF 38FP], the results for the EC50 in the experiment on HT22 cells, in the experiment on MC-65 cells and in the experiment with primary cortical neurons were 33 nM, 80 nM and 70 nM, respectively.

As to `Cc1ccc(N(N=Cc2ccccc2)C(=O)C(F)(F)F)c(C)c1` [HF 39FP], the EC50 in the experiment on HT22 cells is 37 nM; in the experiment on MC-65 cells it was 220 nM; in the experiment with primary cortical neurons, over 1000 nM.

In the case of `COc1cccc(C=NN(C(=O)C(F)(F)F)c2ccccc2)c1` [HF 40FP], the EC50 is 75 nM in the experiment on HT22 cells, 250 nM in the experiment on MC-65 cells and 100 nM in the experiment on primary cortical neurons.

As to `Cc1ccc(N(N=Cc2ccccc2)C(=O)C(F)(F)F)cc1` [HF 41FP], the figures for the EC50 with HT22 cells, in the experiment on MC-65 cells and in the experiment on primary cortical neurons were 33 nM, over 1000 nM and over 1000 nM, respectively.

In the case of `COc1cccc(C=NN(C(=O)C(F)(F)F)c2ccc(C)cc2)c1` [HF 42FP], the EC50 with HT22 cells was determined as 80 nM; in the experiment on MC-65 cells, 50 nM; in the experiment on primary cortical neurons it was 700 nM.

For the molecule `COc1cccc(C=NN(C(=O)C(F)(F)F)c2ccccc2C)c1` [HF 43 FO], the EC50 is 68 nM in the experiment on HT22 cells, 130 nM in the experiment with MC-65 cells and over 1000 nM in the experiment on primary cortical neurons.

In the case of `Cc1ccccc1N(N=Cc1ccccc1)C(=O)C(F)(F)F` [HF 43FP], the figures for the EC50 with HT22 cells, in the experiment on MC-65 cells and with primary cortical neurons were 50 nM, 400 nM and 800 nM, respectively.

On to `COc1ccc(C=NN(C(=O)C(F)(F)F)c2ccc(C)cc2C)cc1` [Sk35], for which the EC50 with HT22 cells was found to be 4 nM; in the experiment with MC-65 cells it was 10 nM; with primary cortical neurons it was 35 nM.

Regarding `Cc1ccc(N(N=Cc2ccc(C(=O)O)cc2)C(=O)C(F)(F)F)c(C)c1` [Sk36], the concentration for a half-maximal effect (EC50) with HT22 cells was 100 nM; with MC-65 cells, 300 nM; in the experiment with primary cortical neurons it was 300 nM.
